Measurements from patent US3949090A, “Methods and compositions for improving feed efficiency in ruminants using dithiooxamide” (SmithKline Corporation, priority 1974, dated 1976).

Tests used:
protein deposition = conditions: compared with acetate; Potter et al., Eskeland et al.; cited from earlier work
sheep = conditions: amino acid supplement; cited from earlier work
[1] = system: Microbial Deaminase (strained rumen fluid); test: In vitro microbial deaminase inhibition (rumen fluid, alfalfa hay, grain mixture; 4 hours); assay type: cell-based; conditions: Table III, dithiooxamide 0 ppm, 240 min
Description: (§1) The in vitro fermentation system contained 75 ml. strained rumen fluid, 200 mg, alfalfa hay, 800 mg. of a crude protein grain mixture, 0.8 to 1.6 mM of each of 10 essential amino acids (threonine, valine, methionine, isoleucine, leucine, phelylalanine, tryptophan, lysine and arginine), and 0 to 50 ppm dithiooxamide. Flasks were incubated for 4 hours with effects upon amino acid deamination assessed as described for the previous system. Using standard chromatographic techniques, effects upon methanogenesis and upon the pattern of volatile fatty acid production were determined.
(§2) ^1 In vitro fermentation system contained 75 ml. strained rumen fluid
(§3) 200 mg. alfalfa hay, 800 mg. grain mixture (16% crude protein) and 1.6 mM
(§4) of each of ten essential amino acids. Flasks were incubated for four
(§5) 200 mg. alfalfa hay, 800 mg. grain mixture (16% crude protein) and 0.8 mM

[2] = system: methanogenesis (strained rumen fluid); test: In vitro effects upon methanogenesis; assay type: cell-based; conditions: Table III, dithiooxamide 0 ppm
Description: as §1, §2, §3, §4, §5

[3] = system: volatile fatty acid production (strained rumen fluid); test: In vitro volatile fatty acid production; assay type: cell-based; conditions: Table III, dithiooxamide 0 ppm; for Volatile Fatty Acids (molar distribution, %): Propionate: control 15; for Volatile Fatty Acids (molar distribution, %): Butyrate: control 21; for Volatile Fatty Acids (molar distribution, %): Acetate: control 64; for Volatile Fatty Acid Carbon: control 125
Description: as §1, §2, §3, §4, §5

[4] = system: gas production (strained rumen fluid); test: In vitro gas production; assay type: cell-based; conditions: Table III, dithiooxamide 0 ppm, control 65
Description: as §1, §2, §5, §4

CCC(=O)O [propionate]
energy metabolites for protein deposition in sheep (in words) (protein deposition): better energy metabolites than acetate for protein deposition in sheep

CSCC[C@H](N)C(=O)O [Methionine]
quality of wool in sheep (in words) (sheep): particularly useful in increasing the quality of wool in sheep

O=S(=O)([O-])[O-].[Cu+2] [Copper Sulfate, reference compound]
MDI (%) ([1]; copper sulfate .067 ppm): 3% | MDI (%) ([1]; copper sulfate .333 ppm): 6% | Methane Inhibition (%) ([2]; copper sulfate .067 ppm): -5% | Methane Inhibition (%) ([2]; copper sulfate .333 ppm): -11% | Volatile Fatty Acids (molar distribution, %): Propionate ([3]; copper sulfate .067 ppm): 15% | Volatile Fatty Acids (molar distribution, %): Butyrate ([3]; copper sulfate .067 ppm): 21% | Volatile Fatty Acids (molar distribution, %): Acetate ([3]; copper sulfate .067 ppm): 64% | Volatile Fatty Acid Carbon ([3]; copper sulfate .067 ppm): 123 μ moles/ml. | Volatile Fatty Acids (molar distribution, %): Propionate ([3]; copper sulfate .333 ppm): 15% | Volatile Fatty Acids (molar distribution, %): Butyrate ([3]; copper sulfate .333 ppm): 22% | Volatile Fatty Acids (molar distribution, %): Acetate ([3]; copper sulfate .333 ppm): 63% | Volatile Fatty Acid Carbon ([3]; copper sulfate .333 ppm): 121 μ moles/ml. | Gas Production ([4]; copper sulfate .067 ppm): 65 cc | Gas Production ([4]; copper sulfate .333 ppm): 64 cc

O=S(=O)([O-])[O-].[Co+2] [Cobalt Sulfate, reference compound]
MDI (%) ([1]; cobalt sulfate .013 ppm): 1% | MDI (%) ([1]; cobalt sulfate .067 ppm): 2% | Methane Inhibition (%) ([2]; cobalt sulfate .013 ppm): 1% | Methane Inhibition (%) ([2]; cobalt sulfate .067 ppm): -5% | Volatile Fatty Acids (molar distribution, %): Propionate ([3]; cobalt sulfate .013 ppm): 15% | Volatile Fatty Acids (molar distribution, %): Butyrate ([3]; cobalt sulfate .013 ppm): 22% | Volatile Fatty Acids (molar distribution, %): Acetate ([3]; cobalt sulfate .013 ppm): 63% | Volatile Fatty Acid Carbon ([3]; cobalt sulfate .013 ppm): 120 μ moles/ml. | Volatile Fatty Acids (molar distribution, %): Propionate ([3]; cobalt sulfate .067 ppm): 15% | Volatile Fatty Acids (molar distribution, %): Butyrate ([3]; cobalt sulfate .067 ppm): 22% | Volatile Fatty Acids (molar distribution, %): Acetate ([3]; cobalt sulfate .067 ppm): 63% | Volatile Fatty Acid Carbon ([3]; cobalt sulfate .067 ppm): 127 μ moles/ml. | Gas Production ([4]; cobalt sulfate .013 ppm): 65 cc | Gas Production ([4]; cobalt sulfate .067 ppm): 65 cc
